Tests used:
[1] = system: HCV replicon in HUH-7 cells; assay: HCV replicon FRET assay; type: cell-based, Hepatitis C virus (strain 1b); conditions: Hepatitis C virus, Huh-7; HCV replicon, for compounds tested; read-out: EC50 Range
Procedure, shortened: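 HUH-7 cells stably carrying a genotype 1b subgenomic HCV replicon (NS3–NS5B) treated with compound for 4 days at 37° C, 0.5% DMSO final. Cytotoxicity (CC50) read by alamar Blue; cells then lysed with 10 μM FRET HCV protease peptide substrate and kinetically read (340/490 nm) for EC50.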

[2] = biological target: T1, HCV NS3/4A protease complex, BMS strain (UniProt P27958, species not given/STRAIN_BMS); assay: FRET peptide assay to monitor HCV NS3/4A proteolytic activity (BMS strain); type: biochemical, Hepatitis C virus (genotype 1a); conditions: NS3/4A BMS strain; read-out: IC50 Range
T1 construct: said of H77 and J4L6S; fused on or other part: A three-lysine solubilising tail at the C-terminus of NS4A and a His tag (pET21b, Ni-NTA purification)
Procedure, shortened: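 Recombinant NS3/4A complexes (aa 1027–1711) from H77 (1a) and J4L6S (1b) carried a three-lysine tail, C1711G and C1454S. They were expressed in E. coli BL21(DE3) (0.5 mM IPTG, 22 h, 20 °C), then purified by Ni-NTA and Superdex-S200 to >90% purity. The BMS strain was a genotype 1a clone from patient serum.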

T1 sequence (P27958 1027-1657, change not shown, one chain of several): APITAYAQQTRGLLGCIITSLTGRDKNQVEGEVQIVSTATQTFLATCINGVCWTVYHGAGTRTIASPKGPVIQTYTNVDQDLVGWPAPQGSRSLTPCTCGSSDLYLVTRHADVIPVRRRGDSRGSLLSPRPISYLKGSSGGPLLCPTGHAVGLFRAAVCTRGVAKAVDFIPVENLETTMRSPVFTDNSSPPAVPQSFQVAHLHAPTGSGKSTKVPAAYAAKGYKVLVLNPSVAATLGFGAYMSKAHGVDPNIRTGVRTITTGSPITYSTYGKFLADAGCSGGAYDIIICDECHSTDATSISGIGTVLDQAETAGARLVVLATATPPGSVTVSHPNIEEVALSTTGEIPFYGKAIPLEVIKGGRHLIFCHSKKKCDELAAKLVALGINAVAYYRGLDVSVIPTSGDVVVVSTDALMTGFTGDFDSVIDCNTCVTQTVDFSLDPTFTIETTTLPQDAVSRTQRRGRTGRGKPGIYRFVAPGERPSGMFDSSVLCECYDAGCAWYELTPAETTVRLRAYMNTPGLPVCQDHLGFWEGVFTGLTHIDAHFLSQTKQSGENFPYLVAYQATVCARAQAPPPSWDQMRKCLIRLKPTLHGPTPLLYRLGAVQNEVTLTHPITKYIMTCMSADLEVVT

Q: Which EC50 [1] does the source give for `CC(C)(C)OC(=O)N[C@H]1COCCC/C=C\[C@@H]2C[C@@]2(C(=O)NS(=O)(=O)C2CC2)NC(=O)[C@@H]2C[C@@H](OC(=O)N3CCc4ccccc43)CN2C1=O` [Compound 45, 18-(indolinecarbonyloxy)-14-tert-butoxycarbonylamino-4-cyclopropylsulfonylaminocarbonyl-2,15-dioxo-3,16-diaza-12-oxatricyclo-[14.3.0.0^4,6]-nonadec-7-ene] here?
A: 100 to 1000 nM

Q: What about the IC50 [2] of the same compound?
A: < 100 nM

Q: What about the melting point of the same compound?
A: 128 to 130 °C

— US7772183B2 (Bristol-Myers Squibb Company, priority 2005, dated 2010)
